pIC50: −log10 of the molar value.
Tested on: 777334-354-R2-J4-PDC tumor spheroids with HUVEC/MSC, viability
Test: Anticancer human tumor 777334-354-R2-J4-PDC patient-derived pancreatic adenocarcinoma cell line growth inhibition [GQUAD]
Conditions: for pIC50: curve of first compound; for viability, T/C: stronger effect = lower value
Outline: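 Multi-cell-type spheroids of tumor cells with HUVEC and mesenchymal stem cells, treated with drug combinations. Concentrations descend in half-log steps from near clinical Cmax, or from 10 microM where Cmax is unknown; viability read-out.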

[1] = second compound 0.0316 µM, first compound 0.0316 µM
[2] = second compound 0.0316 µM, first compound 0.1 µM
[3] = second compound 0.0316 µM, first compound 0.316 µM
[4] = second compound 0.0316 µM, first compound 1 µM
[5] = second compound 0.0316 µM, first compound 3.16 µM
[6] = second compound 0.0316 µM, first compound 10 µM
[7] = second compound 0.1 µM, first compound 0.0316 µM
[8] = second compound 0.1 µM, first compound 0.1 µM
[9] = second compound 0.1 µM, first compound 0.316 µM
[10] = second compound 0.1 µM, first compound 1 µM
[11] = second compound 0.1 µM, first compound 3.16 µM
[12] = second compound 0.1 µM, first compound 10 µM
[13] = second compound 0.316 µM, first compound 0.0316 µM
[14] = second compound 0.316 µM, first compound 0.1 µM
[15] = second compound 0.316 µM, first compound 0.316 µM
[16] = second compound 0.316 µM, first compound 1 µM
[17] = second compound 0.316 µM, first compound 3.16 µM
[18] = second compound 0.316 µM, first compound 10 µM
[19] = second compound 1 µM, first compound 0.0316 µM
[20] = second compound 1 µM, first compound 0.1 µM
[21] = second compound 1 µM, first compound 0.316 µM
[22] = second compound 1 µM, first compound 1 µM
[23] = second compound 1 µM, first compound 3.16 µM
[24] = second compound 1 µM, first compound 10 µM
[25] = second compound 3.16 µM, first compound 0.0316 µM
[26] = second compound 3.16 µM, first compound 0.1 µM
[27] = second compound 3.16 µM, first compound 0.316 µM
[28] = second compound 3.16 µM, first compound 1 µM
[29] = second compound 3.16 µM, first compound 3.16 µM
[30] = second compound 3.16 µM, first compound 10 µM
[31] = second compound 10 µM, first compound 0.0316 µM
[32] = second compound 10 µM, first compound 0.1 µM
[33] = second compound 10 µM, first compound 0.316 µM
[34] = second compound 10 µM, first compound 1 µM
[35] = second compound 10 µM, first compound 3.16 µM
[36] = second compound 10 µM, first compound 10 µM
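Note: spheroids exposed to compounds for 7 days before readout.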

C=CC(=O)N1CCN(c2nc(=O)n(-c3c(C)ccnc3C(C)C)c3nc(-c4c(O)cccc4F)c(F)cc23)C(C)C1 (stereo unspecified) + CN(C)c1ccc(Nc2c3ccc(NC(=O)CCN4CCCC4)cc3nc3cc(NC(=O)CCN4CCCC4)ccc23)cc1
pIC50 (second compound 0.0316 µM): < 5.00 | pIC50 (second compound 0.1 µM): < 5.00 | pIC50 (second compound 0.316 µM): < 5.00 | pIC50 (second compound 1 µM): < 5.00 | pIC50 (second compound 3.16 µM): < 5.00 | pIC50 (second compound 10 µM): < 5.00 | viability, T/C [1]: 102% | viability, T/C [2]: 97% | viability, T/C [3]: 115% | viability, T/C [4]: 100% | viability, T/C [5]: 116% | viability, T/C [6]: 118% | viability, T/C [7]: 89.5% | viability, T/C [8]: 95.1% | viability, T/C [9]: 104% | viability, T/C [10]: 128% | viability, T/C [11]: 120% | viability, T/C [12]: 107% | viability, T/C [13]: 98.2% | viability, T/C [14]: 109% | viability, T/C [15]: 103% | viability, T/C [16]: 113% | viability, T/C [17]: 106% | viability, T/C [18]: 109% | viability, T/C [19]: 92.8% | viability, T/C [20]: 86.7% | viability, T/C [21]: 94.2% | viability, T/C [22]: 105% | viability, T/C [23]: 115% | viability, T/C [24]: 97.7% | viability, T/C [25]: 84.6% | viability, T/C [26]: 87.2% | viability, T/C [27]: 90.5% | viability, T/C [28]: 107% | viability, T/C [29]: 112% | viability, T/C [30]: 95% | viability, T/C [31]: 76.7% | viability, T/C [32]: 76.3% | viability, T/C [33]: 84% | viability, T/C [34]: 90.5% | viability, T/C [35]: 99.5% | viability, T/C [36]: 75.5%

CCc1c2c(nc3ccc(O)cc13)-c1cc3c(c(=O)n1C2)COC(=O)[C@]3(O)CC + Cc1cnc(CNC(=O)c2c(=O)c3ccc(N4CCCN(C)CC4)nc3n3c2sc2ccccc23)cn1
pIC50 (second compound 0.0316 µM): 8.36 | pIC50 (second compound 0.1 µM): 8.35 | pIC50 (second compound 0.316 µM): 8.41 | pIC50 (second compound 1 µM): 8.34 | pIC50 (second compound 3.16 µM): 8.92 | pIC50 (second compound 10 µM): 8.74 | viability, T/C (second compound 0.0316 µM, first compound 0.000999 µM): 84.8% | viability, T/C (second compound 0.0316 µM, first compound 0.00316 µM): 49.6% | viability, T/C (second compound 0.0316 µM, first compound 0.00999 µM): 39.5% | viability, T/C [1]: 25.7% | viability, T/C (second compound 0.0316 µM, first compound 0.0999 µM): 13.8% | viability, T/C [3]: 7.76% | viability, T/C (second compound 0.1 µM, first compound 0.000999 µM): 84.4% | viability, T/C (second compound 0.1 µM, first compound 0.00316 µM): 54.1% | viability, T/C (second compound 0.1 µM, first compound 0.00999 µM): 38.1% | viability, T/C [7]: 23.2% | viability, T/C (second compound 0.1 µM, first compound 0.0999 µM): 17.4% | viability, T/C [9]: 10.6% | viability, T/C (second compound 0.316 µM, first compound 0.000999 µM): 63.6% | viability, T/C (second compound 0.316 µM, first compound 0.00316 µM): 54.1% | viability, T/C (second compound 0.316 µM, first compound 0.00999 µM): 37.1% | viability, T/C [13]: 29% | viability, T/C (second compound 0.316 µM, first compound 0.0999 µM): 19.1% | viability, T/C [15]: 10.3% | viability, T/C (second compound 1 µM, first compound 0.000999 µM): 56% | viability, T/C (second compound 1 µM, first compound 0.00316 µM): 56.8% | viability, T/C (second compound 1 µM, first compound 0.00999 µM): 40.6% | viability, T/C [19]: 32.1% | viability, T/C (second compound 1 µM, first compound 0.0999 µM): 16.7% | viability, T/C [21]: 7.38% | viability, T/C (second compound 3.16 µM, first compound 0.000999 µM): 49.5% | viability, T/C (second compound 3.16 µM, first compound 0.00316 µM): 49.4% | viability, T/C (second compound 3.16 µM, first compound 0.00999 µM): 40.1% | viability, T/C [25]: 28.4% | viability, T/C (second compound 3.16 µM, first compound 0.0999 µM): 13.8% | viability, T/C [27]: 4.92% | viability, T/C (second compound 10 µM, first compound 0.000999 µM): 57.5% | viability, T/C (second compound 10 µM, first compound 0.00316 µM): 40.6% | viability, T/C (second compound 10 µM, first compound 0.00999 µM): 33.6% | viability, T/C [31]: 27.9% | viability, T/C (second compound 10 µM, first compound 0.0999 µM): 0.34% | viability, T/C [33]: 0.24%

Nc1ccn(C2OC(CO)C(O)C2(F)F)c(=O)n1 (stereo unspecified) + CN(C)c1ccc(Nc2c3ccc(NC(=O)CCN4CCCC4)cc3nc3cc(NC(=O)CCN4CCCC4)ccc23)cc1
pIC50 (second compound 0.0316 µM): 6.25 | pIC50 (second compound 0.1 µM): 6.40 | pIC50 (second compound 0.316 µM): 6.49 | pIC50 (second compound 1 µM): 6.77 | pIC50 (second compound 3.16 µM): 6.82 | pIC50 (second compound 10 µM): 7.11 | viability, T/C [1]: 80.7% | viability, T/C [2]: 67.8% | viability, T/C [3]: 54.4% | viability, T/C [4]: 44.3% | viability, T/C [5]: 37.5% | viability, T/C [6]: 27.3% | viability, T/C [7]: 80.5% | viability, T/C [8]: 71.5% | viability, T/C [9]: 51.5% | viability, T/C [10]: 39.1% | viability, T/C [11]: 32.6% | viability, T/C [12]: 27.4% | viability, T/C [13]: 68.5% | viability, T/C [14]: 65.8% | viability, T/C [15]: 45.4% | viability, T/C [16]: 40.5% | viability, T/C [17]: 33.2% | viability, T/C [18]: 23.4% | viability, T/C [19]: 76.2% | viability, T/C [20]: 55.3% | viability, T/C [21]: 42.2% | viability, T/C [22]: 34.4% | viability, T/C [23]: 30.1% | viability, T/C [24]: 22.9% | viability, T/C [25]: 67.4% | viability, T/C [26]: 51.8% | viability, T/C [27]: 43.5% | viability, T/C [28]: 33.7% | viability, T/C [29]: 32.4% | viability, T/C [30]: 22.2% | viability, T/C [31]: 59.5% | viability, T/C [32]: 49.5% | viability, T/C [33]: 33.9% | viability, T/C [34]: 30.5% | viability, T/C [35]: 30.3% | viability, T/C [36]: 18.5%

Source: PubChem BioAssay AID2060499 (Molecular Pharmacology Branch, DTP, NCI, 2025)
